Among the data in patent US9328138B2 (priority 2011, dated 2016) are Ki values, retold here.

Assay [1] has as its target HCV NS3 protease genotype 3a (3A-1) (Hepatitis C virus genotype 3a, UniProt Q81258). Briefly: HCV NS3 protease time-resolved fluorescence (TRF) assay, genotype 3a. As to conditions: Ki 3a. The assay is classed as biochemical. The procedure, abridged:
(§1)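 Assay buffer: 50 mM HEPES pH 7.5, 150 mM NaCl, 0.1% PEG 8000, 0.15% Triton X-100. Ten-minute enzyme–inhibitor preincubation; substrate at 25 nM final; 6 h reaction, room temperature; signal/background set at 5-20 by enzyme amount.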

For assay [2], the target named is T1, HCV genotype 1b (BK) NS3 modified enzyme with a R155K mutation (Hepatitis C virus genotype 1b, UniProt P26663, R1181K).
T1 construct: HCV genotype 1b (BK) NS3 modified enzyme
Briefly: HCV NS3 protease time-resolved fluorescence (TRF) assay, genotype 1b R155K. The assay is classed as biochemical. The following applies: Ki 1b R155K, genotype 1b (BK) NS3 R155K; single value. The method, boiled down:
as §1

One may read the Ki as the dissociation constant of the complex between target and ligand, obtained from inhibition or displacement.

With `C=C[C@@H]1C[C@]1(NC(=O)[C@@H]1C[C@@H]2CN1C(=O)[C@H](C(C)(C)C)NC(=O)O[C@@H]1C[C@H]1CCCCCc1c(nc3ccccc3c1O)O2)C(=O)NS(=O)(=O)C1(C)CC1` [Example 120, (1aR,5S,8S,10R,22aR)-5-tert-butyl-N-[(1R,2S)-2-ethenyl-1-{[(1-methylcyclopropyl)sulfonyl]carbamoyl}cyclopropyl]-17-hydroxy-3,6-dioxo-1,1a,3,4,5,6,9,10,18, 19,20,212,22,22a-tetradeca hydro-8H-7,10-methanocyclopropa [18,19][1,10,3,6]dioxadiazacyclo-nonadecino [11,12-b]quinoline-8-carboxamide], the values for the Ki in assay [1] and in assay [2] were 1100 pM and 62 pM, respectively.
The matching figures for `C=C[C@@H]1C[C@]1(NC(=O)[C@@H]1C[C@@H]2CN1C(=O)[C@H](C(C)(C)C)NC(=O)O[C@@H]1C[C@H]1CCCCCc1c(nc3ccccc3c1OCCCN(C)C)O2)C(=O)NS(=O)(=O)C1(C)CC1` [Example 114, (1aR,5S,8S,10R,22aR)-5-tert-butyl-17-[3-(dimethylamino)propoxy]-N-[(1R,2S)-2-ethenyl-1-{[(1-methylcyclopropyl)sulfonyl]carbamoyl}cyclopropyl]-3,6-dioxo-1,1a,3,4,5,6,9,10,18,19,20,21,22,22a-tetradecahydro-8H-7,10-methanocyclo propa[18,19][1,10,3,6]dioxadiazacyclo-nonadecino[11,12-b] quinoline-8-carboxamide]: 250 pM and 51 pM.
In the case of `C=C[C@@H]1C[C@]1(NC(=O)[C@@H]1C[C@@H]2CN1C(=O)[C@H](C(C)(C)C)NC(=O)O[C@@H]1C[C@H]1CCCCCc1c(nc3ccccc3c1OCCCNC(C)COC)O2)C(=O)NS(=O)(=O)C1(C)CC1` (stereo partly drawn) [Example 179, (1aR,5S,8S,10R,22aR)-5-tert-butyl-N-[(1R,2S)-2-ethenyl-1-{[(1-methylcyclopropyl)sulfonyl]carbamoyl}cyclopropyl]-17-{3-[(1-methoxypropan-2-yl)amino]propoxy}-3,6-dioxo-1,1a,3,4,5,6,9,10,18,19,20,21,22,22a-tetradecahydro-8H-7,10-methanocyclopropa[18,19][1,10,3,6] dioxadiazacyclononadecino[11,12-b] quinoline-8-carboxamide], the figures for the Ki in assay [1] and in assay [2] were 580 pM and 34 pM, respectively.
The matching figures for `C=C[C@@H]1C[C@]1(NC(=O)[C@@H]1C[C@@H]2CN1C(=O)[C@H](C(C)(C)C)NC(=O)O[C@@H]1C[C@H]1CCCCCc1c(nc3ccccc3c1OCCc1cccnc1)O2)C(=O)NS(=O)(=O)C1(C)CC1` [Example 218, (1aR,5S,8S,10R,22aR)-5-tert-butyl-N-[(1R,2S)-2-ethenyl-1-{[(1-methylcyclopropyl)sulfonyl]carbamoyl}cyclopropyl]-3,6-dioxo-17-[2-(pyridin-3-yl)ethoxy]-1,1a,3,4,5,6,9,10,18,19,20,21,22,22a-tetradecahydro-8H-7,10-methanocyclopropa[18,19][1,10,3,6] dioxadiazacyclononadecino[11,12-b]quinoline-8-carboxamide]: 2600 pM and 35 pM.
The like results for `C=C[C@@H]1C[C@]1(NC(=O)[C@@H]1C[C@@H]2CN1C(=O)[C@H](C(C)(C)C)NC(=O)O[C@@H]1CCC[C@H]1CC/C=C/Cc1c(nc3ccccc3c1OC)O2)C(=O)NS(=O)(=O)C1CC1` [Example 6, (3aR,7S,10S,12R,21E,24aS)-7-tert-butyl-N-{(1R,2S)-1-[(cyclopropylsulfonyl)carbamoyl]-2-ethenylcyclopropyl}-19-methoxy-5,8-dioxo-1,2,3,3a,5,6,7,8,11,12,20,23,24,24a-tetradecahydro-10H-9,12-methanocyclopenta[18,19][1,10,3,6] dioxadiazacyclononadecino[11,12-b]quinoline-10-carboxamide] were, in that order, 1300 pM and 100 pM.
Regarding `C=C[C@@H]1C[C@]1(NC(=O)[C@@H]1C[C@@H]2CN1C(=O)[C@H](C(C)(C)C)NC(=O)O[C@@H]1C[C@H]1CCCCCc1c(nc3cc(C(C)C)ccc3c1OCCN1CCOCC1)O2)C(=O)NS(=O)(=O)C1(C)CC1` [Example 132, (1aR,5S,8S,10R,22aR)-5-tert-butyl-N-[(1R,2S)-2-ethenyl-1-{[(1-methylcyclopropyl)sulfonyl]carbamoyl}cyclopropyl]-17-[2-(morpholin-4-yl)ethoxy]-3,6-dioxo-14-(propan-2-yl)-1,1a,3,4,5,6,9,10,18,19,20,21,22,22a-tetradecahydro-8H-7,10-methanocyclopropa[18,19][1,10,3,6]dioxadiazacyclononadecino[11,12-b]quinoline-8-carboxamide], the Ki in assay [1] came to 6800 pM; in assay [2], 390 pM.
`C=C[C@@H]1C[C@]1(NC(=O)[C@@H]1C[C@@H]2CN1C(=O)[C@H](C(C)(C)C)NC(=O)O[C@@H]1C[C@H]1CCCCCc1c(nc3cc(C(C)C)ccc3c1OCCCN1CCOCC1)O2)C(=O)NS(=O)(=O)C1(C)CC1` [Example 161, (1aR,5S,8S,10R,22aR)-5-tert-butyl-N-[(1R,2S)-2-ethenyl-1-{[(1-methylcyclopropyl)sulfonyl]carbamoyl}cyclopropyl]-17-[3-(morpholin-4-yl)propoxy]-3,6-dioxo-14-(propan-2-yl)-1,1a,3,4,5,6,9,10,18,19,20,21,22,22a-tetradecahydro-8H-7,10-methanocyclopropan[18,19] [1,10,3,6]dioxadiazacyclononadecino [11,12-b]quinoline-8-carboxamide]: the Ki in assay [1] was 2800 pM; in assay [2] it was 310 pM.
The matching figures for `C=C[C@@H]1C[C@]1(NC(=O)[C@@H]1C[C@@H]2CN1C(=O)[C@H](C1CCCC1)NC(=O)O[C@@H]1CCC[C@H]1CC/C=C/Cc1c(nc3ccccc3c1OCCCN1CCNC1=O)O2)C(=O)NS(=O)(=O)C1(C)CC1` [Example 48, (3aR,7S,10S,12R,21E,24aS)-7-cyclopentyl-N-[(1R,2S)-2-ethenyl-1-{[(1-methyl-cyclopropyl)sulfonyl]carbamoyl}cyclopropyl]-5,8-dioxo-19-[3-(2-oxoimidazolidin-1-yl)propoxy]-1,2,3,3a,5,6,7,8,11,12,20,23,24,24a-tetradecahydro-10H-9,12-methanocyclopenta [18,19][1,10,3,6]dioxadiazacyclononadecino [11,12-b]quinoline-10-carboxamide]: 760 pM and 120 pM.
The matching figures for `C=C[C@@H]1C[C@]1(NC(=O)[C@@H]1C[C@@H]2CN1C(=O)[C@H](C1CCCC1)NC(=O)O[C@@H]1CCC[C@H]1CC/C=C/Cc1c(nc3ccccc3c1OCCCNC(=O)OC(C)(C)C)O2)C(=O)NS(=O)(=O)C1CC1` [Example 84, tert-butyl (3-{[(3aR,7S,10S,12R,21E,24aS)-7-cyclopentyl-10-({(1R,2S)-1-[(cyclopropylsulfonyl)carbamoyl]-2-ethenylcyclopropyl}carbamoyl)-5,8-dioxo-1,2,3,3a,5,6,7,8,11,12, 20,23,24,24a-tetradecahydro-10H-9,12-methanocyclopenta[18,19][1,10,3,6]dioxadiazacyclononadecino [11,12-b]quinolin-19-yl]oxy}propyl)carbamate]: 7200 pM and 240 pM.
For `C=C[C@@H]1C[C@]1(NC(=O)[C@@H]1C[C@@H]2CN1C(=O)[C@H](C(C)(C)C)NC(=O)O[C@@H]1CCC[C@H]1CCCCCc1c(nc3ccccc3c1OCCCN1CCCCC1)O2)C(=O)NS(=O)(=O)C1(COC)CC1` [Example 96, (3aR,7S,10S,12R,24aR)-7-tert-butyl-N-[(1R,2S)-2-ethenyl-1-({[1-(methoxymethyl)cyclopropyl]sulfonyl}carbamoyl)cyclopropyl]-5,8-dioxo-19-[3-(piperidin-1-yl)propoxy]-1,2,3,3a,5,6,7,8,11,12,20,21,22,23,24,24a-hexadecahydro-10H-9,12-methanocyclopenta[18,19][1,10,3,6]dioxadiazacyclononadecino[11,12-b]quinoline-10-carboxamide], the Ki in assay [1] is 780 pM; in assay [2], 150 pM.
Turning to `C=C[C@@H]1C[C@]1(NC(=O)[C@@H]1C[C@@H]2CN1C(=O)[C@H](C(C)(C)C)NC(=O)O[C@@H]1C[C@H]1CCCCCc1c(nc3ccccc3c1OCCCN1CCC[C@@H]1C(N)=O)O2)C(=O)NS(=O)(=O)C1(C)CC1` [Example 208, (1aR,5S,8S,10R,22aR)-5-tert-butyl-17-{3-[(2R)-2-carbamoylpyrrolidin-1-yl]propoxy}-N-[(1R,2S)-2-ethenyl-1-{[(1-methylcyclopropyl)sulfonyl]carbamoyl}cyclopropyl]-3,6-dioxo-1,1a,3,4,5,6,9,10,18,19,20,21,22,22a-tetradecahydro-8H-7,10-methanocyclopropa[18,19][1,10,3,6] dioxadiazacyclononadecino[11,12-b] quinoline-8-carboxamide], the Ki in assay [1] was determined as 1000 pM; in assay [2] it was 110 pM.
The like results for `C=C[C@@H]1C[C@]1(NC(=O)[C@@H]1C[C@@H]2CN1C(=O)[C@H](C(C)(C)C)NC(=O)O[C@@H]1CCC[C@H]1CCCCCc1c(nc3ccccc3c1OCCN1CCOCC1)O2)C(=O)NS(=O)(=O)C1CC1` [Example 104, (3aR,7S,10S,12R,24aR)-7-tert-butyl-N-{(1R,2S)-1-[(cyclopropylsulfonyl)carbamoyl]-2-ethenylcyclopropyl}-19-[2-(morpholin-4-yl)ethoxy]-5,8-dioxo-1,2,3,3a,5,6,7,8,11,12,20, 21,22,23,24,24a-hexadecahydro-10H-9,12-methanocyclopenta[18,19] [1,10,3,6]dioxadiaza-cyclononadecino[11,12-b] quinoline-10-carboxamide] were, in that order, 26000 pM and 1300 pM.
